This test relates to FBXW7/c-Jun interaction. The test is described as follows: Immunoprecipitation, ubiquitination and FBXW7/c-Jun interaction. It counts as cell-based, human. From the text:
To investigate whether the ubiquitination of c-Jun is suppressed through the inhibition of c-Jun and FBXW7 binding by DGG200064, c-Jun immunoprecipitation was done to observe protein–protein interaction (Figure 4). E3 ligase, such as FBXW7, binds the protein to the ubiquitin chain through covalent bonds and rapidly degrades the protein through 26S proteasome. When treated with MG132 as a proteasome inhibitor, the ubiquitination of c-Jun increased compared to both control HCT116 and DLD1 cells. In contrast, the c-Jun ubiquitination was inhibited by DGG200064. The binding between c-Jun and FBXW7 was reduced with DGG200064 treatment. The FBXW7 protein, also known as CDC4, is a component of the SCF complex ubiquitin ligase and is known as a modulator of several substrates including cyclin E, c-Myc, c-Jun, and Notch. To check the selectivity of DGG200064 towards FBXW7 substrates, the change of c-Jun, cyclin E, and c-Myc by DGG200064 was analyzed. […] Cyclin E immunoprecipitation was done to test whether the ubiquitination of cyclin E by FBXW7 is inhibited by DGG200064 in HCT116 (Figure S2b, Supplementary Materials). There were no changes in cyclin E ubiquitination with DGG200064 treatment.
To identified ubiquitination of c-Jun by DGG200064, HCT116 cells were treated with/without MG132 (10 μM) for 6h, DGG200064 (50 nM) for 18 h. The cell lysate was prepared using RIPA buffer for immunoprecipitation. Each lysate was mixed with antibodies (1 μg/mL) of c-Jun or MYC at 4 °C overnight in immunoprecipitation buffer containing 50 mM Tris-Cl,150 mM NaCl, 1 mM EDTA, 0.5% Triton X-100, pH 7.4, and reacted with 10 μL of protein A/G beads UltraLink Resin (50:50 resin: buffer slurry condition) (Peirce, #35133) for 2 h on RT for precipitation. After reaction and centrifugation at 3000 rpm for 3 min, the immunoprecipitated samples were washed with 500 μL of immunoprecipitation buffer by tapping and centrifuged. The washing was repeated five times before western blotting.

For the molecule `COc1cc(OC)cc(N2CCN(C(=O)Nc3nc4sccc4nc3OC)CC2)c1` [Compound 7c, 4-(3,5-Dimethoxyphenyl)-N-(2-methoxythieno[2,3-b]pyrazin-3-yl)piperazine-1-carboxamide], where the note is “HCT116, cyclin E immunoprecipitation”, the “cyclin E ubiquitination” value was “no changes”. For the same molecule, the “binding between c-Jun and FBXW7” value (HCT116 and DLD1, 50 nM, 18 h, c-Jun immunoprecipitation) is given as “reduced”. Besides, the c-Jun ubiquitination entry (HCT116 and DLD1, DGG200064 50 nM 18 h, MG132 10 μM 6 h) is listed as “inhibited”.
